Assay results: patent publication US4311699A, “Aminoacid derivatives of cephalosporin compounds” (priority 1980, dated 1982)
Converted amounts (≈) assume the structure as drawn. Where two headings read alike, the source gives them in different places.

What was measured:
Assay in all cases: in vitro antibacterial activity, minimal inhibitory concentration
Format in all cases: cell-based
[1] = system: Staph. aureus UC-76; settings: Staphylococcus aureus, UC76; Staph. aureus UC-76, in vitro
Description: (§1) The compounds of the invention are new chemical compounds that are used as pharmacological agents and especially as broad spectrum antibacterial agents. They are active in vitro against strains of both gram-positive and gram-negative bacteria.
(§2) Minimal Inhibitory Concentration (μg/ml)

[2] = system: Entero. cloacae; settings: Enterobacter cloacae
Description: as §1, §2

[3] = system: Prot. vulg.
Description: as §1, §2

[4] = system: E. coli Brig; settings: Escherichia coli
Description: as §1, §2

[5] = system: Klebs. pneu.
Description: as §1, §2

[6] = system: Staph. aureus S18733; settings: Staphylococcus aureus
Description: as §1, §2

[7] = system: Pseudomonas #28; settings: read-out: Minimal Inhibitory Concentration
Description: as §1, §2

[8] = system: Serr. marces.
Description: as §1, §2

[9] = system: Pseudomonas UI 18; settings: UI18; Pseudomonas UI 18, in vitro
Description: as §1, §2

[10] = system: Strep. fec.
Description: as §1, §2

[11] = system: Pseudomonas BRK 12-4-4; settings: BRK1244; Pseudomonas BRK 12-4-4, in vitro
Description: as §1, §2

[12] = system: E. coli Vogel; settings: Escherichia coli
Description: as §1, §2

| Structure (SMILES) | MIC [1] | MIC [2] | MIC [3] | MIC [4] | MIC [5] | MIC [6] | MIC ([7]; Pseudomonas #28, in vitro) | MIC [8] | MIC [9] | MIC [10] | MIC [11] | MIC [12] | MIC ([7]; Pseudomonas) |
| --- | --- | --- | --- | --- | --- | --- | --- | --- | --- | --- | --- | --- | --- |
| CC(=O)NC(C)C(=O)Nc1ccc(-c2ncc(C(=O)N[C@@H](C(=O)NC3C(=O)N4C(C(=O)O)=C(CSc5nnc(C)s5)CSC34)c3ccccc3)c(O)n2)cc1 (mixture of isomers) [Example 40, N-[2-[4-(N-Acetyl-DL-alanylamino)phenyl]-4-hydroxy-5-pyrimidinylcarbonyl]-7-[D-2-amino-2-phenylacetamido]-3-[[(5-methyl-1,3,4-thiadiazoyl-2-thio]methyl]-3-cephem-4-carboxylic acid] | 0.4 µg/mL | 25 µg/mL | 50 µg/mL | 12.5 µg/mL | 3.1 µg/mL | 3.1 µg/mL | 12.5 µg/mL | 50 µg/mL | 6.3 µg/mL | 25 µg/mL | 12.5 µg/mL | 3.1 µg/mL |  |
| CC(=O)N[C@@H](C)C(=O)Nc1ccc(-c2ncc(C(=O)N[C@@H](C(=O)NC3C(=O)N4C(C(=O)O)=C(CSc5nnnn5CC(=O)O)CSC34)c3ccccc3)c(O)n2)cc1 (stereo partly drawn) [Example 33] | 6.3 µg/mL (≈ 7.57 µM) | 6.3 µg/mL (≈ 7.57 µM) | 3.1 µg/mL (≈ 3.73 µM) | 12.5 µg/mL (≈ 15 µM) | 6.3 µg/mL (≈ 7.57 µM) | 25 µg/mL (≈ 30.1 µM) | 6.3 µg/mL (≈ 7.57 µM) | > 50 µg/mL | 12.5 µg/mL (≈ 15 µM) | > 50 µg/mL | 12.5 µg/mL (≈ 15 µM) | 1.6 µg/mL (≈ 1.92 µM) |  |
| CC(=O)NCCCCC(NC(C)=O)C(=O)Nc1ccc(-c2ncc(C(=O)N[C@@H](C(=O)N[C@@H]3C(=O)N4C(C(=O)O)=C(COC(C)=O)CS[C@H]34)c3ccccc3)c(O)n2)cc1 (mixture of isomers) [Example 12, N-[2-[4-(N^α,N^ω -Diacetyl-DL-lysylamino)phenyl]-4-hydroxy-5-pyrimidinylcarbonyl]-7-[D-2-amino-2-phenylacetamido]-3-acetoxymethyl-3-cephem-4carboxylic acid] | 1.6 µg/mL | 25 µg/mL | 50 µg/mL | 50 µg/mL | 25 µg/mL | 6.3 µg/mL | 6.3 µg/mL | > 50 µg/mL | 6.3 µg/mL | 50 µg/mL | 12.5 µg/mL | 6.3 µg/mL |  |
| CC(=O)N[C@@H](C(=O)Nc1ccc(-c2ncc(C(=O)N[C@@H](C(=O)NC3C(=O)N4C(C(=O)O)=C(CSc5nnnn5C)CSC34)c3ccccc3)c(O)n2)cc1)C(C)C (stereo partly drawn) [Example 29] | 1.6 µg/mL (≈ 1.96 µM) | 12.5 µg/mL (≈ 15.3 µM) | 6.3 µg/mL (≈ 7.72 µM) | 12.5 µg/mL (≈ 15.3 µM) | 3.1 µg/mL (≈ 3.8 µM) | 3.1 µg/mL (≈ 3.8 µM) | 6.3 µg/mL (≈ 7.72 µM) | 50 µg/mL (≈ 61.3 µM) | 6.3 µg/mL (≈ 7.72 µM) | 25 µg/mL (≈ 30.6 µM) | 12.5 µg/mL (≈ 15.3 µM) | 1.6 µg/mL (≈ 1.96 µM) |  |
| CC(=O)N[C@@H](C(=O)Nc1ccc(-c2ncc(C(=O)N[C@@H](C(=O)N[C@@H]3C(=O)N4C(C(=O)O)=C(COC(C)=O)CS[C@H]34)c3ccccc3)c(O)n2)cc1)C(C)C [Example 17, N-[2-[4-(N-Acetyl-D-valylamino)phenyl]-4-hydroxy-5-pyrimidinylcarbonyl]-7-[D-2-amino-2-phenylacetamido]-3-acetoxymethyl-3-cephem-4-carboxylic acid] | 1.6 µg/mL (≈ 2.11 µM) | 25 µg/mL (≈ 32.9 µM) | 25 µg/mL (≈ 32.9 µM) | 12.5 µg/mL (≈ 16.5 µM) | 12.5 µg/mL (≈ 16.5 µM) | 6.3 µg/mL (≈ 8.29 µM) | 6.3 µg/mL (≈ 8.29 µM) | > 50 µg/mL | 6.3 µg/mL (≈ 8.29 µM) | 50 µg/mL (≈ 65.8 µM) | 12.5 µg/mL (≈ 16.5 µM) | 6.3 µg/mL (≈ 8.29 µM) |  |
| CC(=O)N[C@@H](C)C(=O)Nc1ccc(-c2ncc(C(=O)N[C@@H](C(=O)NC3C(=O)N4C(C(=O)O)=C(CSc5nnnn5C)CSC34)c3ccccc3)c(O)n2)cc1 (stereo partly drawn) [Example 26, N-[2-[4-(N-Acetyl-L-alanylamino)phenyl]-4-hydroxy-5-pyrimidinylcarbonyl]-7-[D-2-amino-2-phenylacetamido]-3-[[(1-methyl-1H-tetrazol-5-yl)thio]methyl]-3-cephem-4-carboxylic acid] | 6.3 µg/mL (≈ 8 µM) | 12.5 µg/mL (≈ 15.9 µM) | 12.5 µg/mL (≈ 15.9 µM) | 12.5 µg/mL (≈ 15.9 µM) | 6.3 µg/mL (≈ 8 µM) | 12.5 µg/mL (≈ 15.9 µM) | 6.3 µg/mL (≈ 8 µM) | 50 µg/mL (≈ 63.5 µM) | 12.5 µg/mL (≈ 15.9 µM) | 50 µg/mL (≈ 63.5 µM) | 12.5 µg/mL (≈ 15.9 µM) | 3.1 µg/mL (≈ 3.93 µM) |  |
| CC(=O)N[C@H](C)C(=O)Nc1ccc(-c2ncc(C(=O)N[C@@H](C(=O)NC3C(=O)N4C(C(=O)O)=C(CSc5nnnn5CC(=O)O)CSC34)c3ccc(O)cc3)c(O)n2)cc1 (stereo partly drawn) [Example 37, N-[2-[4-(N-Acetyl-D-alanylamino)phenyl]-4-hydroxy-5-pyrimidinylcarbonyl)-7-[D-2amino-2-(4-hydroxyphenyl)acetamido]-3-[[(1-carboxymethyl-1H-tetrazol-5-yl)thio]methyl]-3-cephem-4-carboxylic acid] | 25 µg/mL (≈ 29.5 µM) | 12.5 µg/mL (≈ 14.7 µM) | 1.6 µg/mL (≈ 1.89 µM) | 12.5 µg/mL (≈ 14.7 µM) | 12.5 µg/mL (≈ 14.7 µM) | 25 µg/mL (≈ 29.5 µM) | 12.5 µg/mL (≈ 14.7 µM) | > 50 µg/mL | 6.3 µg/mL (≈ 7.43 µM) | > 50 µg/mL | 12.5 µg/mL (≈ 14.7 µM) | 3.1 µg/mL (≈ 3.66 µM) |  |
| CC(=O)N[C@H](C)C(=O)Nc1ccc(-c2ncc(C(=O)N[C@@H](C(=O)N[C@@H]3C(=O)N4C(C(=O)O)=C(COC(C)=O)CS[C@H]34)c3cccs3)c(O)n2)cc1 [Example 19, N-[2-[4-(N-Acetyl-D-alanylamino)phenyl]-4-hydroxy-5-pyrimidinylcarbonyl]-7-[D-2-amino-2-(2-thienyl)acetamido]-3-acetoxymethyl-3-cephem-4-carboxylic acid] | 0.8 µg/mL (≈ 1.08 µM) | 50 µg/mL (≈ 67.8 µM) | 25 µg/mL (≈ 33.9 µM) | > 50 µg/mL | 12.5 µg/mL (≈ 16.9 µM) | 1.6 µg/mL (≈ 2.17 µM) | 6.3 µg/mL (≈ 8.54 µM) | > 50 µg/mL | 6.3 µg/mL (≈ 8.54 µM) | 25 µg/mL (≈ 33.9 µM) | 6.3 µg/mL (≈ 8.54 µM) | 12.5 µg/mL (≈ 16.9 µM) |  |
| CC(=O)N[C@H](C)C(=O)Nc1ccc(-c2ncc(C(=O)N[C@@H](C(=O)NC3C(=O)N4C(C(=O)O)=C(CSc5nnnn5C)CSC34)c3ccccc3)c(O)n2)cc1 (stereo partly drawn) [Example 25, N-[2-[4-(N-Acetyl-D-alanylamino)phenyl]-4-hydroxy-5-pyrimidinylcarbonyl]-7-[D-2-amino-2-phenylacetamido]-3-[[(1-methyl-1H-tetrazol-5-yl)thio]methyl]-3-cephem-4-carboxylic acid] | 1.6 µg/mL (≈ 2.03 µM) | 6.3 µg/mL (≈ 8 µM) | 12.5 µg/mL (≈ 15.9 µM) | 6.3 µg/mL (≈ 8 µM) | 3.1 µg/mL (≈ 3.93 µM) | 6.3 µg/mL (≈ 8 µM) | 3.1 µg/mL (≈ 3.93 µM) | 50 µg/mL (≈ 63.5 µM) | 6.3 µg/mL (≈ 8 µM) | > 50 µg/mL | 6.3 µg/mL (≈ 8 µM) | 3.1 µg/mL (≈ 3.93 µM) |  |
| O=C(O)Cn1nnnc1SCC1=C(C(=O)O)N2C(=O)C(NC(=O)[C@H](NC(=O)c3cnc(-c4ccc(NC(=O)CN5CCCC5=O)cc4)nc3O)c3ccccc3)C2SC1 (stereo partly drawn) [Example 42] | 12.5 µg/mL (≈ 14.8 µM) | 6.3 µg/mL (≈ 7.47 µM) | 1.6 µg/mL (≈ 1.9 µM) | 6.3 µg/mL (≈ 7.47 µM) | 3.1 µg/mL (≈ 3.67 µM) | 25 µg/mL (≈ 29.6 µM) | 6.3 µg/mL (≈ 7.47 µM) | 50 µg/mL (≈ 59.3 µM) | 6.3 µg/mL (≈ 7.47 µM) | > 50 µg/mL | 12.5 µg/mL (≈ 14.8 µM) | 3.1 µg/mL (≈ 3.67 µM) |  |
| CC(=O)OCC1=C(C(=O)O)N2C(=O)[C@@H](NC(=O)[C@H](NC(=O)c3cnc(-c4ccc(NC(=O)C5CCC(=O)N5)cc4)nc3O)c3ccccc3)[C@H]2SC1 (mixture of isomers) [Example 6, N-[2-]4-((5-oxo-DL-prolyl)amino)phenyl]-4-hydroxy-5-pyrimidinylcarbonyl]-7-[D-2-amino-2-phenylacetamido]-3-acetoxymethyl-3-cephem-4-carboxylic acid] | 1.6 µg/mL | 50 µg/mL | 50 µg/mL | 50 µg/mL | 25 µg/mL | 6.3 µg/mL |  | > 50 µg/mL | 12.5 µg/mL | 50 µg/mL | 12.5 µg/mL | 12.5 µg/mL | 6.3 µg/mL |
